Structures can show the parent of a compound that is named as a salt. Bounds are passed on as bounds.

For this assay, the target named is T1, rabbit erythrocyte Na^+ /H^+ exchanger (Oryctolagus cuniculus, UniProt P23791).
T1 construct: endogenous in cells; host or cells: rabbit erythrocytes (whole heparinized blood of cholesterol-fed New Zealand White rabbits, Ivanovas)
T1 sequence (P23791 whole entry): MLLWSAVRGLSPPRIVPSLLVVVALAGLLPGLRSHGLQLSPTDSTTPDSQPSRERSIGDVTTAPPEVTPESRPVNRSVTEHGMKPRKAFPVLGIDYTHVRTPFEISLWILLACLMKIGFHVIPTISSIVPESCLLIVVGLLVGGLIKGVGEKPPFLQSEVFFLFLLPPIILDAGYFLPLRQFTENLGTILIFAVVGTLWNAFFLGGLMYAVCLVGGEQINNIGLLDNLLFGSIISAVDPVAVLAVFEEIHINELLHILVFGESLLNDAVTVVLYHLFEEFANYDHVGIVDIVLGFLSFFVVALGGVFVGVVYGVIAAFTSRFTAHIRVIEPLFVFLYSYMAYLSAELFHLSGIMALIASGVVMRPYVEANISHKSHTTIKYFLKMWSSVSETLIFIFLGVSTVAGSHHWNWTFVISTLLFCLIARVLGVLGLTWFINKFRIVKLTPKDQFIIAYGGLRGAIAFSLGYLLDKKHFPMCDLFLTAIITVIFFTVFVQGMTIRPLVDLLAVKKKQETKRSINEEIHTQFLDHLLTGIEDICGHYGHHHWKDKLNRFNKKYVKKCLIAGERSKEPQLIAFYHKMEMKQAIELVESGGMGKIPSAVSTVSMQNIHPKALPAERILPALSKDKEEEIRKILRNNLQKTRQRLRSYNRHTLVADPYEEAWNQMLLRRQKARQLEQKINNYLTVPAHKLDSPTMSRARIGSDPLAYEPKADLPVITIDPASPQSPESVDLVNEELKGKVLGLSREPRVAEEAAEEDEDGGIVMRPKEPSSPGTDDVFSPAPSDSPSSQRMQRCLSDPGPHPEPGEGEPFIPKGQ
Briefly: Inhibition of the rabbit erythrocyte Na^+ /H^+ exchanger (amiloride-sensitive Na^+ influx, flame photometry). Type of assay: cell-based, rabbit (New Zealand White). The note with it: erythrocytes of rabbits fed 2% cholesterol for six weeks; pH 7.4, 37° C., hyperosmolar salt/sucrose medium. The text has this:
Inhibition of the rabbit erythrocyte Na^+ /H^+ exchanger New Zealand White rabbits (Ivanovas) were given a standard diet containing 2% cholesterol for six weeks in order to activate Na^+ /H^+ exchange and thus render it possible to use flame photometry to determine the influx of Na+into the erythrocytes by way of Na^+ /H^+ exchange. The blood was withdrawn from the aural arteries and rendered incoagulable by adding 25 IU of potassium heparin. A part of each sample was used for determining the hematocrit in duplicate by means of centrifugation. Aliquots of in each case 100 μl were used to measure the initial content of Na^+ in the erythrocytes.
In order to determine the amiloride-sensitive sodium influx, 100 μl of each blood sample were in each case incubated, at pH 7.4 and 37° C., in 5 ml of a hyperosmolar salt/sucrose medium (mmol/l: 140 NaCl, 3 KCl, 150 sucrose, 0.1 ouabain, 20 tris(hydroxymethyl)aminomethane). After that, the erythrocytes were washed three times with an ice cold solution of MgCl2 /ouabain (mmol/l: 112 MgCl2, 0.1 ouabain) and hemolyzed in 2.0 ml of distilled water. The intracellular content of sodium was determined by flame photometry.
The net influx of Na^+ was calculated from the difference between the initial sodium values and the sodium content of the erythrocytes after incubation. The amiloride-inhibitable sodium influx was obtained from the difference in the sodium content of the erythrocytes after incubation with and without 3×10^-4 mol/l amiloride. The same procedure was used in the case of the novel compounds.
Take `COc1cc(C(F)(F)F)cc(C(=O)N=C(N)N)c1OC` [Example 1, 2,3-Dimethoxy-5-trifluoromethylbenzoylguanidine hydrochloride]: the 50% inhibitory concentration (IC50) came to 53 nM.
Then `COc1c(I)cc(C(F)(F)F)cc1C(=O)N=C(N)N` [Example 2, 2-Methoxy-3-iodo-5-trifluoromethylbenzoylguanidine hydrochloride], with 17 nM; and `COc1cc(C)ccc1C(=O)N=C(N)N` [Example 5, 2-Methoxy-4-methylbenzoylguanidine hydrochloride], with more than 1000 nM; and `COc1c(C(=O)N=C(N)N)cc(C(C)(C)C)cc1C(C)(C)C` [Example 6, 3,5-Bis-tert-butyl-2-methoxybenzoylguanidine hydrochloride], with 1000 nM.
Then `COc1cc(OC)c(C(F)(F)F)cc1C(=O)N=C(N)N` [Example 7, 2,4-Dimethoxy-5-trifluoromethylbenzoylguanidine hydrochloride], with 200 nM.
